# Source: ChEMBL document CHEMBL1141584, “Synthesis, biological evaluation and molecular modelling studies of methyleneimidazole substituted biaryls as inhibitors of human 17alpha-hydroxylase-17,20-lyase (CYP17). Part I: Heterocyclic modifications of the core structure” (Bioorg Med Chem, 2008)
# Assays:
# [1] = target: T1, Steroid 17-alpha-hydroxylase/17,20 lyase (Homo sapiens, UniProt P05093); test: Inhibition of human CYP17 expressed in Escherichia coli co-expressed with NADPH-P450 reductase at 2 uM
# T1 sequence (P05093 whole entry): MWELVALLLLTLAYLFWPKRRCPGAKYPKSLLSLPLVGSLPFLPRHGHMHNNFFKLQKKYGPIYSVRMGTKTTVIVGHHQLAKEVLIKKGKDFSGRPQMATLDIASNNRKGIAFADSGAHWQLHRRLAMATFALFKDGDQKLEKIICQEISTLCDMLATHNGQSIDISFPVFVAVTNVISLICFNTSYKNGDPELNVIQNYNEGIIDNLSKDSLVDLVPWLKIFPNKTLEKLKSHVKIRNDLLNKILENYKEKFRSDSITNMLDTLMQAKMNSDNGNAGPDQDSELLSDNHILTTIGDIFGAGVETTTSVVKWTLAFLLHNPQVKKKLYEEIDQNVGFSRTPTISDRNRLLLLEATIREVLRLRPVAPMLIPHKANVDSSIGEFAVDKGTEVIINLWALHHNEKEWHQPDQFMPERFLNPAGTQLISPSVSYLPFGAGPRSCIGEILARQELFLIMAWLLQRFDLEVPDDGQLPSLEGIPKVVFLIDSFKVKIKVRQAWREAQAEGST
# [2] = target: T1, Steroid 17-alpha-hydroxylase/17,20 lyase; test: Inhibition of human CYP17 expressed in Escherichia coli co-expressed with NADPH-P450 reductase at 0.2 uM
# CYP3A4 [3] = target: T2, CYP3A4 (Homo sapiens, UniProt P08684); test: Inhibition of recombinant CYP3A4 at 10 uM; type: ADME
# CYP3A4 [4] = target: T2, CYP3A4; test: Inhibition of recombinant CYP3A4 at 1 uM; type: ADME
# [5] = target: T1, Steroid 17-alpha-hydroxylase/17,20 lyase; test: Inhibition of human CYP17 expressed in Escherichia coli co-expressed with NADPH-P450 reductase
# T2 sequence (P08684 whole entry): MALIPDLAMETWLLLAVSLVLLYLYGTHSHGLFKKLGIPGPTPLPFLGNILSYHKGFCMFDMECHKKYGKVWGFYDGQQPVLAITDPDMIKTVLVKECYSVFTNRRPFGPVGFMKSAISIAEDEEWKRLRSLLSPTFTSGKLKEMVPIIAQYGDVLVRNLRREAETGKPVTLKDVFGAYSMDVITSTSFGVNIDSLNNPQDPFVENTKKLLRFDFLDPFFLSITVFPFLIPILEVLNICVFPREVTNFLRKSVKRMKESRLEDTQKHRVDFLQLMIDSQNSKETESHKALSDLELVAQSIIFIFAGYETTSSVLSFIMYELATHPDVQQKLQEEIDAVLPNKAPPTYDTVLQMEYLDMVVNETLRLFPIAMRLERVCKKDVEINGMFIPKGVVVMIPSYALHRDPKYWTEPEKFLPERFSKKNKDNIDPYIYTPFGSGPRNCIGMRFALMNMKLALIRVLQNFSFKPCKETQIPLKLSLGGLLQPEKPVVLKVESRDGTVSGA
Compound,inhibition at 2 µM [1] [%],inhibition at 0.2 µM [2] [%],inhibition at 10 µM (CYP3A4 [3]) [%],inhibition at 1 µM (CYP3A4 [4]) [%],IC50 [5] [nM]
COc1ccc(-c2ccc(Cn3ccnc3)cn2)cc1OC,2,1,,,
CCC(c1ccc(-c2ccc(SC)s2)cc1)n1ccnc1 (stereo not drawn),3,2,,,
c1cn(Cc2ccc(-c3ccoc3)cc2)cn1,29,3,,,
COc1ccccc1-c1ccc(Cn2ccnc2)cn1,5,0,,,
CCC(c1ccc(-c2ccsc2Cl)cc1)n1ccnc1 (stereo not drawn),85,40,97,87,263
COc1ccc(-c2csc(Cn3ccnc3)c2)cc1OC,14,0,,,
Fc1ccc(-c2ccc(Cn3ccnc3)nc2)cc1,2,0,,,
c1cncc(-c2ccc(Cn3ccnc3)cc2)c1,14,2,,,
Fc1ccc(-c2ccc(Cn3ccnc3)cn2)cc1F,0,0,,,
CC(c1ccc(N2CCOCC2)cc1)n1ccnc1 (stereo not drawn),12,5,,,
c1ccc(-c2csc(Cn3ccnc3)c2)cc1,21,0,,,
c1cn(Cc2ccc(-c3cncnc3)cc2)cn1,3,5,,,

# Further lines, results first:
inhibition at 2 µM [1] [%],inhibition at 0.2 µM [2] [%],inhibition at 10 µM (CYP3A4 [3]) [%],inhibition at 1 µM (CYP3A4 [4]) [%],IC50 [5] [nM],Compound
35,3,,,,CSc1ccc(-c2ccc(Cn3ccnc3)cc2)s1
92,41,97,88,236,CCC(c1ccc(-c2cscc2C)cc1F)n1ccnc1 (stereo not drawn)
24,9,,,,ClCc1ccc(-c2ccc(Cn3ccnc3)cc2)cn1
49,7,,,,CC(C)C(O)(c1ccc(-c2ccsc2)cc1)c1c[nH]cn1 (stereo not drawn)
24,0,,,,COc1cccc(-c2csc(Cn3ccnc3)c2)c1
20,0,,,,Fc1ccc(-c2csc(Cn3ccnc3)c2)cc1
1,0,,,,COc1cccc(-c2ccc(Cn3ccnc3)cn2)c1
4,0,,,,c1ccc(-c2ccc(Cn3ccnc3)cn2)cc1
25,7,,,,Fc1ccc(-c2csc(Cn3ccnc3)c2)cc1F
5,5,,,,Fc1ccc(-c2ccc(Cn3ccnc3)cn2)cc1
13,0,,,,COc1ccc(-c2csc(Cn3ccnc3)c2)cc1
13,4,,,,Fc1ccc(-c2ccc(Cn3ccnc3)cc2)cn1
27,0,,,,Cc1cscc1-c1ccc(Cn2ccnc2)cc1
3,2,,,,Nc1cccc(-c2ccc(Cn3ccnc3)cn2)c1
0,0,,,,COc1ccc(-c2ccc(Cn3ccnc3)cn2)cc1
84,27,,,584,CCC(c1ccc(-c2cscc2C)cc1)n1ccnc1 (stereo not drawn)
